Values quoted from earlier work in US10213490B2, “Compositions for providing agents that degrade in water” (VIRUN, INC., priority 2015, dated 2019).

glutathione remaining (stored in water at pH 2 and 7, after 7 days): approximately 65% | glutathione degraded (stored in water, pH 3 to 6, 7 days): 20%
SMILES: N[C@@H](CCC(=O)N[C@@H](CS)C(=O)NCC(=O)O)C(=O)O [glutathione]
